Experimental data as given in PubChem BioAssay (NCI).
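Five compound concentrations were applied to cells in 96-well plates for 48 hours; endpoints were derived by simple linear interpolation of the resulting dose-response curve. TGI denotes the concentration required for complete inhibition of growth.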

What was measured:
Experiment in all cases: growth of human tumour cells (NCI), 48 h
[1] = tested on: SF-268 CNS
[2] = tested on: LOX IMVI melanoma
[3] = tested on: HT29 colon
[4] = tested on: UO-31 renal
[5] = tested on: HCT-116 colon
[6] = tested on: K-562 leukemia
[7] = tested on: SK-MEL-28 melanoma
[8] = tested on: KM12 colon
[9] = tested on: OVCAR-8 ovarian
[10] = tested on: RXF 393 renal
[11] = tested on: NCI-H23 lung
[12] = tested on: RPMI-8226 leukemia
[13] = tested on: A498 renal
[14] = tested on: SF-539 CNS
[15] = tested on: MALME-3M melanoma
[16] = tested on: SNB-19 CNS
[17] = tested on: HCC-2998 colon
[18] = tested on: OVCAR-5 ovarian
[19] = tested on: SK-OV-3 ovarian
[20] = tested on: SK-MEL-5 melanoma

For CC(C)=CCc1c(O)ccc2ccc(=O)oc12, the TGI [1] was > 100 µM, the TGI [2] was > 100 µM and the TGI [3] was > 100 µM. The TGI [4] was > 95.1 µM, the TGI [5] was > 100 µM and the TGI [6] was > 100 µM. The TGI [7] was > 100 µM, the TGI [8] was > 100 µM and the TGI [9] was > 100 µM. For the same compound, the TGI [10] was > 100 µM, the TGI [11] was > 100 µM and the TGI [12] was > 100 µM. For the same compound, the TGI [13] was > 100 µM, the TGI [14] was > 31.6 µM and the TGI [15] was > 100 µM. The TGI [16] was > 100 µM, the TGI [17] was > 100 µM and the TGI [18] was > 31.6 µM. The TGI [19] was > 100 µM and the TGI [20] was 23.5 µM.

With O=C(CC(=O)c1ccccc1)CC(O)(c1ccccc1)c1ccccc1 the TGI [1] was 24.6 µM, the TGI [3] was 23.7 µM and the TGI [4] was 18.4 µM. For the same compound, the TGI [5] was 16.6 µM, the TGI [6] was 33.4 µM and the TGI [7] was 31.9 µM. For the same compound, the TGI [8] was 21.9 µM, the TGI [9] was 20.5 µM and the TGI [11] was 18.8 µM. For the same compound, the TGI [12] was > 100 µM, the TGI [13] was 25.1 µM and the TGI [15] was 25.4 µM. It also gave a TGI [16] of 35.3 µM, a TGI [17] of 23.8 µM and a TGI [18] of 25.6 µM. The TGI [19] was 76 µM and the TGI [20] was 13.7 µM.

In the case of COc1cc(/C=C/C(=O)O)ccc1C(=O)OCc1ccccc1, the TGI [1] is reported as > 100 µM, the TGI [2] is reported as > 100 µM and the TGI [3] is reported as > 100 µM. The TGI [4] was > 100 µM, the TGI [5] was > 100 µM and the TGI [6] was > 100 µM. For the same compound, the TGI [7] was > 100 µM, the TGI [8] was > 100 µM and the TGI [9] was > 100 µM. The TGI [10] was > 100 µM, the TGI [11] was > 100 µM and the TGI [12] was > 100 µM. The TGI [13] was > 100 µM, the TGI [14] was > 100 µM and the TGI [15] was > 100 µM. For the same compound, the TGI [16] was > 100 µM, the TGI [17] was > 100 µM and the TGI [18] was > 100 µM. The TGI [19] was > 100 µM and the TGI [20] was > 100 µM.

In the case of COC(=O)CN(C)P(=O)(N1CC1)N1CC1, the TGI [1] is reported as > 100 µM, the TGI [2] is reported as > 100 µM and the TGI [3] is reported as > 100 µM. The TGI [4] was > 100 µM, the TGI [6] was > 100 µM and the TGI [7] was > 100 µM. For the same compound, the TGI [8] was > 100 µM, the TGI [9] was > 100 µM and the TGI [10] was > 100 µM. The TGI [11] was > 100 µM, the TGI [12] was > 100 µM and the TGI [14] was > 100 µM. The TGI [15] was > 100 µM, the TGI [16] was > 100 µM and the TGI [17] was > 100 µM. For the same compound, the TGI [18] was > 100 µM, the TGI [19] was > 100 µM and the TGI [20] was > 100 µM.
